Reference: publication PMC11995226, “Linker-Determined Folding and Hydrophobic Interactions Explain a Major Difference in PROTAC Cell Permeability” (ACS Medicinal Chemistry Letters, 2025)
In brackets after ≈: the same amount, converted by molar mass. Read-outs that look alike come from different tables or passages of the source.

Experiments:
[1] = parameters: method as in PMID 39693386; conditions: Data reported recently; cited from earlier work
[2] = FaSSIF and FeSSIF solubility; format: physicochemical
Experimental: 1. Experimental and Computational Methods
Fasted and Fed State Simulated Intestinal Fluid (FaSSIF and FeSSIF) Solubility.
Suspensions of amorphous 1 and 2 were stirred at 37 °C in FaSSIF and FeSSIF for 24 h ± 4 h
prior to filtration and analysis of the filtrate. The solubility was determined via HPLC-MS
analysis of the filtrate using a calibration curve (external standard). […]

[3] = EPSA (experimental polar surface area, chromatographic); format: physicochemical
Experimental: 1. Experimental and Computational Methods […]
EPSA. EPSA retention times for 1 and 2 were determined at Sygnature Discovery. In brief, the
EPSA assay was performed on a Waters Acquity UPC2 system equipped with a PDA and a
QDa detector, using a Phenomenex Chirex (S)-VAL and (R)-NEA LC column (50 x 4.6 mm).
A gradient of MeOH, containing 20 mM ammonium formate, in CO2 was used as eluent.

[4] = parameters: method as in PMID 39693386; conditions: logarithm of Pe; Data reported recently; cited from earlier work
[5] = FaSSIF, pH 6.5, 37 °C, read-out: Solubility FaSSIF, pH 6.5
[6] = FeSSIF, pH 5.0, 37 °C, read-out: Solubility FeSSIF, pH 5.0

Compound	Solubility PBS, pH 6.5 [1] [μM]	solubility at 24 h [2, 5] [µM]	solubility at 24 h [2, 6] [µM]	EPSA [3] [A^2]	PAMPA Log[Pe (cm/s)] [4]
Cc1ncsc1-c1ccc(CNC(=O)[C@@H]2C[C@@H](O)CN2C(=O)[C@@H](NC(=O)CCCCCCCCOc2cnc3c(C4CCN(C(=O)c5ccc(OC(F)(F)F)cc5)CC4)ncnc3c2)C(C)(C)C)cc1 [PROTAC 1]	< 0.1	18.6 (≈ 18.4 µg/mL)	174 (≈ 172 µg/mL)	93.1	-8.3 log10(Pe in cm/s)
Cc1ncsc1-c1ccc(CNC(=O)[C@@H]2C[C@@H](O)CN2C(=O)[C@@H](NC(=O)CCOCCOCCOc2cnc3c(C4CCN(C(=O)c5ccc(OC(F)(F)F)cc5)CC4)ncnc3c2)C(C)(C)C)cc1 [PROTAC 2]		53.2 (≈ 52.7 µg/mL)	349 (≈ 346 µg/mL)	91.5	-5.4 log10(Pe in cm/s)
